We go through one compound from publication PMC7997032, “Organic synthesis and anti-influenza A virus activity of cyclobakuchiols A, B, C, and D” (PLoS ONE, 2021).

The data set concerns MDCK cells. As to the kind of experiment: MTT assay (cytotoxicity against MDCK cells). It is filed as cell-based, canine. The conditions noted are these: ≤50 μM, 24 or 72 h. In a few lines: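 Compounds at 0.8–100 μM (final DMSO up to 1%) in DMEM with 1% BSA and 4 mM L-glutamine incubated with cells 24 or 72 h at 37°C, 5% CO2. Viability measured by MTT.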
For orientation: Formazan colour is commonly taken as a measure of viable cells.

Regarding `C=C[C@@](C)(/C=C/c1ccc(O)cc1)CCC=C(C)C` [(+)-(S)-bakuchiol, reference compound], the “cell viability / toxicity (MTT)” value is reported as “not affected”.
